Reference: patent US20250281474A1, “PHARMACEUTICAL COMPOSITION FOR TREATING COGNITIVE DECLINE OR FOR TREATING OVERWEIGHTNESS OR OBESITY” (University of the Ryukyus, priority 2021, published 2025)

Key:
[1] = system: calcium-permeable AMPA receptor; test: Ca2+ imaging of hippocampal slices of Alzheimer's disease model mice (NL, NLGF); type: cell-based, mouse; details: Alzheimer's disease model (NL and NLGF) mice fed CD
[2] = Body weight monitoring of HFD-fed mice; type: in vivo, mouse
Procedure: Male C57BL/6J background and ob/ob mice were obtained from CLEA Japan Inc. and Japan SLC, respectively (3). The reason why male mice were selected is that it has been reported that male mice are susceptible to HFD, such as weight gain, metabolic changes, and disorder of learning and hippocampal synaptic plasticity. These animals were housed 3 to 4 per cage in a standard 12 hour dark-light cycle room at 25° C. in an environment with freely available food and water. All animal experiments were performed in accordance with the guidelines of the Animal Experiment Ethics Committee of the University of the Ryukyus. Time series changes in average food intake and average body weight were monitored in each condition.
Post-weaning (6 weeks) food intake and body weight of mice maintained on control diet (CD), high-fat diet (HFD), or HFD containing PER (Fycompa (trademark), Eisai, Japan) (5 mg/kg/day) was monitored up to 18 w (FIGS. 2, E and F). […]
Mice were then split into an HFD-fed group (n=5) and a PER-containing HFD-fed group (n=5) under the condition of the same feeding amount (refer to lower Panel of FIG. 25) and their body weights monitored.

HFD-fed mice [3] = test: Five-trial social memory assay, HFD-fed mice; type: in vivo, mouse; details: HFD-fed mice with PER treatment
Procedure: Five-trial social tests were performed as previously described (19). In summary, subject mice with CD, HFD, and HFD with PER treatment were housed individually starting 7 days before the study to establish territory dominance. On the day of the test, a female mouse was presented in the cages of subject male mice, which is a subject (FIG. 2G), and 5 min trials were performed 4 times in succession at 10 min intervals. In the fifth trial, a novel female mouse was presented (FIG. 2G) and the duration of the social investigation was recorded.

HFD-fed mice [4] = test: MRI volumetric analysis of mouse hippocampus; type: in vivo; details: HFD-fed mice n=8 treated with PER; left CA1 and DG, right CA1, CA3 and DG
Description: Anatomical brain images of 8 ex vivo mice with CD, HFD, PER treatment were acquired using a Bruker BioSpec 117/11 11.75 Tesla MRI scanner (Bruker BioSpin GmbH, Ettlingen, Germany). MPRAGE (three-dimensional (3D)-prepared rapid gradient-echo) sequences were acquired as high resolution 100 μm iso-voxel images for voxel-based morphometry (matrix size: 280×220×220; field of view: 28×22×22 mm, repetition time: 2000 ms, echo time: 1.78 ms, flip angle: 12 degrees, inversion time: 800 ms, echo train length: 13, average number of times: 2).
A region of interest was drawn in the acquired data image using a rapid acquisition protocol by relaxation enhancement (RARE) sequence (matrix size: 280×220×220, field of view: 28×22×22 mm; repeat time: 1500 ms; echo time: 25 ms; flip angle: 180°). The MPRAGE image and the RARE image were simultaneously acquired by one single scan.
MRI data acquisition of ex vivo mice was acquired by simultaneously placing the head parts of four mice fixed with PBS into an MRI coil. Brains of four mice were confirmed using raw MRI data. […]
The volume of subfields of the hippocampus (CA1, CA2, CA3, DG, EC) was calculated using the ROI file (31, 33, 51, 52). […]

ob/ob mice = test: Immunohistochemical analysis (MAP2, GluA1, GluA2, DCX), ob/ob mice; type: in vivo, mouse; details: ob/ob mice with PER
Description: Mouse brains were perfusion-fixed with 4% paraformaldehyde, embedded in paraffin, and cut into 4 micrometer thick sections to be used for immunohistochemical analysis of monoclonal antibodies against DCX (E-6 monoclonal, 1:50, Santa Cruz Biotechnology Inc, Dallas, USA), MAP2ab (AP-20 monoclonal, 1:100, SIGMA-ALDRICH, St. Louis, USA), GluA1 (AB1540 polyclonal, 1:100, EMD Millipore Corp., Burlington, USA), and GluA2 (AB 1768-1 polyclonal, 1:5, EMD Millipore Corp., Burlington, USA).
The immunostained region in each of the expression regions of MAP2, GluA1, and GluA2 was acquired using a ZVI format AxioVision (Carl Zeiss, Germany) microscope (objective lens 20×). Generation of data image processing with image segmentation was performed using machine learning with ZEN Intelliesis software. 1000 or more cells were examined in each group. One-way variance analysis was used for testing variance among the three groups excluding data of 3SD or higher. Then, the following number of samples was used.
Similar to the HFD mouse model, ob/ob mice had reduced dendritic arbors integrity as determined by MAP2 staining (FIG. 12). […] In addition, the maturation of the protrusions of DCX-positive cells progressed by treatment with PER for 12 weeks (FIG. 14).

NMDAR = test: Ca2+ imaging of hippocampal brain slices, NMDA+glycine application, ob/ob mice; details: ob/ob mice, PER administration; p<0.05

SMILES: N#Cc1ccccc1-c1cc(-c2ccccn2)cn(-c2ccccc2)c1=O [PER, 3-(2-cyanophenyl)-5-(2-pyridyl)-1-phenyl-1,2-dihydropyridine-2-one]
- inhibition of NMDAR by the calcium-permeable AMPA receptor [1]: can be eliminated
- body weight of HFD-fed mice ([2]; HFD containing PER 5 mg/kg/day from 6 weeks, effect started from 16 w compared to HFD): significant inhibition
- body weight under the condition of the same feeding amount ([2]; PER-containing HFD-fed group n=5 vs HFD-fed group n=5): significant body weight loss
- social memory (five-trial social interaction test) (HFD-fed mice [3]): restored social memory disturbance
- hippocampal volume (printed brain weight) by volumetric analysis (HFD-fed mice [4]): significantly restored
- GluA1 expression in CA1 (immunoreactive regions) (ob/ob mice): restored
- ratio of GluA2/GluA1 (immunoreactive regions) (ob/ob mice): restored
- NMDAR function in all hippocampal subregions (NMDAR): restoration
